Laboratory results reported in ChEMBL document CHEMBL1150977, “A quantitative analysis of kinase inhibitor selectivity” (Nat Biotechnol, 2008).
pKd: −log10 of the molar value.

Experiments:
[1] = target: Ephrin type-A receptor 5 (Homo sapiens, UniProt P54756)
[2] = target: T1, Dual specificity mitogen-activated protein kinase kinase 4 (Homo sapiens, UniProt P45985)
T1 sequence (P45985 whole entry): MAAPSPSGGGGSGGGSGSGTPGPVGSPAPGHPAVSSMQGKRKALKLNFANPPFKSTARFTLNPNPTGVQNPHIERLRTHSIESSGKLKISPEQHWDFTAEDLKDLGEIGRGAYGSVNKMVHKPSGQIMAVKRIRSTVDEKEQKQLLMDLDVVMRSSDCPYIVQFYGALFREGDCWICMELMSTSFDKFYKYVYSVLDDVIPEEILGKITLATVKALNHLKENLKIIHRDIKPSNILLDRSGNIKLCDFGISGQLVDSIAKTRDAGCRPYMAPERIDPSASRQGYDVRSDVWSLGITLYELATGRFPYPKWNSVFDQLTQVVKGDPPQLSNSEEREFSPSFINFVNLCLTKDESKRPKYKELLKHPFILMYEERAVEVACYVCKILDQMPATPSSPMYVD

[3] = target: Protein-tyrosine kinase 6 (Homo sapiens, UniProt Q13882)
Chain of Protein-tyrosine kinase 6 (Q13882 whole entry): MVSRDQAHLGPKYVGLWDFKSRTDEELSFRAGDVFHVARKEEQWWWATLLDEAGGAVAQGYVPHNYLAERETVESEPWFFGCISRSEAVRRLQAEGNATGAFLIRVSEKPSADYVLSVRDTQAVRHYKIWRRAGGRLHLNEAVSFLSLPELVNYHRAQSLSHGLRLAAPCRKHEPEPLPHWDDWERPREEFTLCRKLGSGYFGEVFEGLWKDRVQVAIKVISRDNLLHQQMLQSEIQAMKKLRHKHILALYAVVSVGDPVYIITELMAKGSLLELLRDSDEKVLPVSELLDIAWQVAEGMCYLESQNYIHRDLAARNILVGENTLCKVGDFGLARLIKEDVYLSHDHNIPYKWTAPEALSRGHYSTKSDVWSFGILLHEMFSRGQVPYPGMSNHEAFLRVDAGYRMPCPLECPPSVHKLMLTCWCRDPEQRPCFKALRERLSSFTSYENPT

[4] = target: Calcium/calmodulin-dependent protein kinase type 1 (Homo sapiens, UniProt Q14012)
Chain of Calcium/calmodulin-dependent protein kinase type 1 (Q14012 whole entry): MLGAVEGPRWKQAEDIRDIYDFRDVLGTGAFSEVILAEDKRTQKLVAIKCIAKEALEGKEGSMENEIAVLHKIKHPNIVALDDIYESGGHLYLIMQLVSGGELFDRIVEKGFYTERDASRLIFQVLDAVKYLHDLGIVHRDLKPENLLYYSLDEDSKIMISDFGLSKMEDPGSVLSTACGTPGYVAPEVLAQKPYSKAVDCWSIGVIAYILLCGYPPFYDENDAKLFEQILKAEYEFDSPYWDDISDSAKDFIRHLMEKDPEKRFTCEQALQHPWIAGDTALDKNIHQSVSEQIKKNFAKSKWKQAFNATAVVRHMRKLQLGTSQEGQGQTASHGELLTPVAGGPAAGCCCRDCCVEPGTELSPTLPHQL

[5] = target: T2, Membrane-associated tyrosine- and threonine-specific cdc2-inhibitory kinase (Homo sapiens, UniProt Q99640)
T2 sequence (Q99640 whole entry): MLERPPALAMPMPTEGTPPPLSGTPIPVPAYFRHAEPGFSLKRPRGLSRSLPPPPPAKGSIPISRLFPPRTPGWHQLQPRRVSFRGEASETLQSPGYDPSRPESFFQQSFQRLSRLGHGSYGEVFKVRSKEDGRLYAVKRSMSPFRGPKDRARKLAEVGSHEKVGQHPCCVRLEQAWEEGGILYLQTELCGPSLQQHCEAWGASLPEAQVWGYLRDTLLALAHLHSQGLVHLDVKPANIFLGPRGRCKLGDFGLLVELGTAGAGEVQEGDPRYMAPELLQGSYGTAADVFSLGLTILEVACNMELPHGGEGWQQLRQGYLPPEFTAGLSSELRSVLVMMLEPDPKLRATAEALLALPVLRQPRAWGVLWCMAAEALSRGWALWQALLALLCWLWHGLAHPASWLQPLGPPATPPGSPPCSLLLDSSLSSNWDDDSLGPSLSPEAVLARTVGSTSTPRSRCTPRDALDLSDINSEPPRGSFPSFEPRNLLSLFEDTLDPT

[6] = target: T3, Ephrin type-B receptor 3 (Homo sapiens, UniProt P54753)
T3 sequence (P54753 whole entry): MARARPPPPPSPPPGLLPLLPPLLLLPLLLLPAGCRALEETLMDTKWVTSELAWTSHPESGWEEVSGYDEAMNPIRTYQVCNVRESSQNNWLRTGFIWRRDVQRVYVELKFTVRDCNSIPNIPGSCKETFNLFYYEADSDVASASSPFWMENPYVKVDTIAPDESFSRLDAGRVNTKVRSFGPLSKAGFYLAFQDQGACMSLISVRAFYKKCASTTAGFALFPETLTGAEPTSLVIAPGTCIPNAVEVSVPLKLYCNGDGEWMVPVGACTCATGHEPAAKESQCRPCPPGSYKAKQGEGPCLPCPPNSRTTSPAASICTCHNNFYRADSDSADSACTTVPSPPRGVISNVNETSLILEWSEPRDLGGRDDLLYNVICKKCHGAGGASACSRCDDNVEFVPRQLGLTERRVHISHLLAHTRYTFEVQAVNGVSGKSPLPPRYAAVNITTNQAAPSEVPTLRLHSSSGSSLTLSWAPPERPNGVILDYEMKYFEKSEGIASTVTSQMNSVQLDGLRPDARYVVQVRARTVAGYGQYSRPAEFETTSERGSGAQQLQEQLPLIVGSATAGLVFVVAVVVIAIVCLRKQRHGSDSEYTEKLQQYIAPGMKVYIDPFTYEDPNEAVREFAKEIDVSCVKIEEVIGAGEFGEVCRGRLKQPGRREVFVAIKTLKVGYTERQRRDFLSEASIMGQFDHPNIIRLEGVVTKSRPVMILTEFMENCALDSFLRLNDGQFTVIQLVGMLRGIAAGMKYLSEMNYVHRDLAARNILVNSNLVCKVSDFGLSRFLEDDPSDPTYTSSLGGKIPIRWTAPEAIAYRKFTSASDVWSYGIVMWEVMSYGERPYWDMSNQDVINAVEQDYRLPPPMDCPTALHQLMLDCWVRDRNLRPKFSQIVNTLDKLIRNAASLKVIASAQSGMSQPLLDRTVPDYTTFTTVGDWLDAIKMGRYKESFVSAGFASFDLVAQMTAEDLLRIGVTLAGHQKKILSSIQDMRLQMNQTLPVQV

[7] = target: MAP kinase-interacting serine/threonine-protein kinase 2 (Homo sapiens, UniProt Q9HBH9)
Chain of MAP kinase-interacting serine/threonine-protein kinase 2 (Q9HBH9 whole entry): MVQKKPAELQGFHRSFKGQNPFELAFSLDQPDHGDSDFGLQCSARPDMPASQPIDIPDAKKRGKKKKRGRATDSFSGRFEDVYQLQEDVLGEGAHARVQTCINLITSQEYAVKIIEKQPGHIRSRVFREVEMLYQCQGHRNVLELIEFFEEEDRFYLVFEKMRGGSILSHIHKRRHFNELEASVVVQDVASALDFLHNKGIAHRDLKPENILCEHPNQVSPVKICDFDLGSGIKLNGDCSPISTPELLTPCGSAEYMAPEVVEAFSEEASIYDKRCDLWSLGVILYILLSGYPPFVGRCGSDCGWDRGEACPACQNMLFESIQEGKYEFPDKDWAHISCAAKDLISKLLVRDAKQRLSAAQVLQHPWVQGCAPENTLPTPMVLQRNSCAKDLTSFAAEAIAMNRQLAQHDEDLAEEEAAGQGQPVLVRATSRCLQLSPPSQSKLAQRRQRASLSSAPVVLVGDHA

[8] = target: BMP-2-inducible protein kinase (Homo sapiens, UniProt Q9NSY1)
Chain of BMP-2-inducible protein kinase (Q9NSY1 whole entry): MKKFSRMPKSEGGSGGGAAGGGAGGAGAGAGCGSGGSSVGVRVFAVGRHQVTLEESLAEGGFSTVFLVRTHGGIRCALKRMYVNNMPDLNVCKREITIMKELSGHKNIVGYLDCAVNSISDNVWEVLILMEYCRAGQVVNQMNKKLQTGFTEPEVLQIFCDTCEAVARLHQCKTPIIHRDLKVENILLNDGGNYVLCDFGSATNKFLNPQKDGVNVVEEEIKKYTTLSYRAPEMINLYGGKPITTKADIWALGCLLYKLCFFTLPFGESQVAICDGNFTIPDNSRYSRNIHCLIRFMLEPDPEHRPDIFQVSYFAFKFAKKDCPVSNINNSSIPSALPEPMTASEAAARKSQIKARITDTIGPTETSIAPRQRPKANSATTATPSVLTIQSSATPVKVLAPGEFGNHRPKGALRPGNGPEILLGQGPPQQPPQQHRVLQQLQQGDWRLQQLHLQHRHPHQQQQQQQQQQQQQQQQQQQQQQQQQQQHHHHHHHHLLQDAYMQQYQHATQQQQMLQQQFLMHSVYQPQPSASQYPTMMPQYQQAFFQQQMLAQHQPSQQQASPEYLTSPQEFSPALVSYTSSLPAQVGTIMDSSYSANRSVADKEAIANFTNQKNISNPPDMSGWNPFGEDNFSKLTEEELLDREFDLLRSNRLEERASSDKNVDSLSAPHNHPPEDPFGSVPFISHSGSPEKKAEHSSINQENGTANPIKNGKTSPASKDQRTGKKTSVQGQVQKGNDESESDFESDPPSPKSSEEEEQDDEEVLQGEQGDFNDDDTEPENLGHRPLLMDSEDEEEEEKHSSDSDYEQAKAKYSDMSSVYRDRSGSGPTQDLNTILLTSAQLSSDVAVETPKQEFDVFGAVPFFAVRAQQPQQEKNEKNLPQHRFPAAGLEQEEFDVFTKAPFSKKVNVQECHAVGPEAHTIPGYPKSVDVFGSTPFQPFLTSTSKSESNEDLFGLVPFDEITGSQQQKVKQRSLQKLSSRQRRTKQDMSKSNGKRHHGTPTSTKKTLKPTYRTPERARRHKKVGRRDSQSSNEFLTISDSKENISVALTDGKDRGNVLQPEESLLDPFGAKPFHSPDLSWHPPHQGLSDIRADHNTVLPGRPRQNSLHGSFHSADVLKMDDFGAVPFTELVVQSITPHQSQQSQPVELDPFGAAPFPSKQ

[9] = target: Tyrosine-protein kinase ABL1 (Homo sapiens, UniProt P00519, H396P)

Chain of Ephrin type-A receptor 5 (P54756 whole entry): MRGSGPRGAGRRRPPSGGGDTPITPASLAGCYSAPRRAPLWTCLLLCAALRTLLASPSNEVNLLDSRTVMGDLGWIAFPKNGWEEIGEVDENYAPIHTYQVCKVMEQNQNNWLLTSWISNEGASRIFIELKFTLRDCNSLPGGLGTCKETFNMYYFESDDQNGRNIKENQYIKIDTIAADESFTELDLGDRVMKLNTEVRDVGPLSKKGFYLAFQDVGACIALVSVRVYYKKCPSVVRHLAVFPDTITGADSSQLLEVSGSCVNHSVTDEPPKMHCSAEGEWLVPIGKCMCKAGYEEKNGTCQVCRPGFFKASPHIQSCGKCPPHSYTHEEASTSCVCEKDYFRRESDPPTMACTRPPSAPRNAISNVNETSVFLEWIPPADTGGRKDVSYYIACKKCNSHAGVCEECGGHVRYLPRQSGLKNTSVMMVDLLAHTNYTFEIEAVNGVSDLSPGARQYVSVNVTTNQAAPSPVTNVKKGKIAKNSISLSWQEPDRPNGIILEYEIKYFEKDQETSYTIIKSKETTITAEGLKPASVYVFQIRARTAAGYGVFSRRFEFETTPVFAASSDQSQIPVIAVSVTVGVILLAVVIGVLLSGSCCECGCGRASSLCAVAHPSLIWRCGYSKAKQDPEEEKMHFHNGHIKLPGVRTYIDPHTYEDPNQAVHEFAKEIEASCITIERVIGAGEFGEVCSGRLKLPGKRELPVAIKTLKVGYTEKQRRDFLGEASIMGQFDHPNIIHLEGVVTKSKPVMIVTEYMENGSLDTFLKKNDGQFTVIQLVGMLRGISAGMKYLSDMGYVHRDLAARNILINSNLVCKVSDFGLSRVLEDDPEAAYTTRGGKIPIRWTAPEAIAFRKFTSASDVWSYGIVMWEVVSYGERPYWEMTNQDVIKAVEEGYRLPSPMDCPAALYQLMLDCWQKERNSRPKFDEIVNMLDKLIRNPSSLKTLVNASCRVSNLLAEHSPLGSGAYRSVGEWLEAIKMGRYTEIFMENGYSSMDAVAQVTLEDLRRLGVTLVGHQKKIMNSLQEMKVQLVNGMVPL

| Structure (SMILES) | pKd [1] | pKd [2] | pKd [3] | pKd [4] | pKd [5] | pKd [6] | pKd [7] | pKd [8] | pKd [9] |
| --- | --- | --- | --- | --- | --- | --- | --- | --- | --- |
| CCOc1cc2ncc(C#N)c(Nc3ccc(F)c(Cl)c3)c2cc1NC(=O)/C=C/CN(C)C [PELITINIB] | < 5.00 | < 5.00 | < 5.00 | < 5.00 | 5.54 | < 5.00 | < 5.00 | – | – |
| COCC(=O)NC/C=C/c1ccc2ncnc(Nc3ccc(Oc4ccc(C)nc4)c(C)c3)c2c1 [CP-724714] | < 5.00 | < 5.00 | < 5.00 | – | < 5.00 | < 5.00 | 6.08 | < 5.00 | < 5.00 |
| NC(=O)c1ccc(-c2nc(-c3ccc4c(c3)OCO4)c(-c3ccccn3)[nH]2)cc1 [SB-431542] | < 5.00 | < 5.00 | < 5.00 | < 5.00 | < 5.00 | < 5.00 | < 5.00 | < 5.00 | < 5.00 |
| Nc1nc(Nc2ccc(S(N)(=O)=O)cc2)nn1C(=O)c1c(F)cccc1F [JNJ-7706621] | < 5.00 | – | < 5.00 | < 5.00 | < 5.00 | < 5.00 | < 5.00 | – | – |
| Oc1ccc(-c2nc(-c3ccncc3)c(-c3ccc(F)cc3)[nH]2)cc1 [SB-202190] | < 5.00 | < 5.00 | 5.17 | < 5.00 | < 5.00 | < 5.00 | < 5.00 | < 5.00 | < 5.00 |
| CCN1CCN(Cc2ccc(NC(=O)Nc3ccc(Oc4cc(NC)ncn4)cc3)cc2C(F)(F)F)CC1 [AST-487] | – | < 5.00 | – | – | – | – | – | – | – |
